This note sets out measurements from PubChem BioAssay (NCI).

Experiment in all cases: inhibition of tumour cell growth, NCI panel, 48 h
For experiment [1], the system named is IGROV1 ovarian.
Experiment [2] concerns 786-0 renal.
For experiment [3], the system named is UACC-257 melanoma.
In experiment [4] the test system is RXF 393 renal.
In experiment [5] the test system is COLO 205 colon.
Experiment [6] has as its system HCT-116 colon.
The test system of experiment [7] is SK-MEL-28 melanoma.

Each structure is given as a SMILES string.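 Five concentrations, 48 hours, 96-well plates. Here, GI50 denotes the concentration required for 50% inhibition of growth. TGI: concentration producing complete growth inhibition.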 Some results are limits rather than exact numbers.

As to `COc1cccc(-c2nn(C)c3sc(C(=O)NCCN4CCN(c5ccccc5F)CC4)cc23)c1`, the GI50 is > 100 µM in experiment [1]; 5.24 µM in experiment [2]; 28.4 µM in experiment [3]; 3.17 µM in experiment [4]; 20.6 µM in experiment [5]; 9.91 µM in experiment [6]. Moreover, in experiment [7], the GI50 was 11.1 µM. Further, the TGI in experiment [1] was > 100 µM; in experiment [2] it was 25.1 µM; in experiment [3] it was > 100 µM; in experiment [4], > 100 µM; in experiment [5], > 100 µM; in experiment [6], > 100 µM. The compound also showed a TGI in experiment [7] of 33.4 µM.

Take `C/C(=N\O)c1ccc(Nc2cc(-c3ccccc3)nc3c(O)cccc23)cc1`: the GI50 in experiment [1] is 17.1 µM; in experiment [2], 17.2 µM; in experiment [3], 11.7 µM; in experiment [4], 7.47 µM; in experiment [5], 20.7 µM; in experiment [6] it was 13.2 µM. In experiment [7], the GI50 was 14.5 µM. Moreover, the TGI in experiment [1] was found to be 34.6 µM; in experiment [2], 31.8 µM; in experiment [3], 24.4 µM; in experiment [4], 24.7 µM; in experiment [5], 42.6 µM; in experiment [6] it was 25.9 µM. The TGI in experiment [7] was 32.3 µM.

For the compound `CCCCCCCCCCCC(=O)[O][Sn]([CH2]CCC)([CH2]CCC)[CH2]CCC`, the GI50 is 0.0547 µM in experiment [1]; 0.0539 µM in experiment [2]; 0.0533 µM in experiment [3]; 0.0483 µM in experiment [4]; 0.0509 µM in experiment [5]; 0.0379 µM in experiment [6]. Further, in experiment [7], the GI50 was 0.0649 µM. Also, the TGI in experiment [1] came to 0.175 µM; in experiment [2], 0.132 µM; in experiment [3], 0.181 µM; in experiment [4], 0.117 µM; in experiment [5], 0.122 µM; in experiment [6] it was 0.14 µM. Besides, the TGI in experiment [7] came to 0.179 µM.

For `COc1ccc(-c2nn(C(=O)c3cc(OC)c(OC)c(OC)c3)c3cc(N)ccc23)cc1`, the GI50 was 0.0207 µM in experiment [1]; < 0.0191 µM in experiment [2]; 5.54 µM in experiment [3]; < 0.01 µM in experiment [4]; 0.0217 µM in experiment [5]; < 0.01 µM in experiment [6]. For the same compound, the GI50 in experiment [7] is 1.76 µM. Besides, the TGI stood at 15.9 µM in experiment [1]; 3.63 µM in experiment [2]; 39.3 µM in experiment [3]; 3.98 µM in experiment [4]; 0.0489 µM in experiment [5]; 1.45 µM in experiment [6]. In experiment [7], this compound showed a TGI of 24.3 µM.

Take `COc1cc(Cl)c(C)cc1NC(=O)c1cc2ccccc2cc1O`: the GI50 in experiment [1] was 3.04 µM; in experiment [2], 3.13 µM; in experiment [3] it was 1.94 µM; in experiment [4], 2.84 µM; in experiment [5], 2.37 µM; in experiment [6] it was 1.95 µM. For the same compound, the GI50 in experiment [7] was 3.77 µM. The TGI turned out to be 34.4 µM in experiment [1]; 8.53 µM in experiment [2]; 5.93 µM in experiment [3]; 7.01 µM in experiment [4]; 8.41 µM in experiment [5]; 7.1 µM in experiment [6]. Also, the TGI in experiment [7] came to 22.8 µM.

As to `N=C(N)c1ccc(-c2ccc(-c3ccccc3)o2)o1`, the GI50 in experiment [1] is 2.89 µM; in experiment [2], 1.74 µM; in experiment [3] it was 2.52 µM; in experiment [4], 2.33 µM; in experiment [5], 1.78 µM; in experiment [6] it was 2.06 µM. Further, in experiment [7], the GI50 is 1.9 µM. Also, the TGI worked out at 11.8 µM in experiment [1]; 3.54 µM in experiment [2]; 6.35 µM in experiment [3]; 6.55 µM in experiment [4]; 3.49 µM in experiment [5]; 5.29 µM in experiment [6]. Moreover, the TGI in experiment [7] was determined as 4.41 µM.

For `O=C1/C=C/[C@@H](O)[C@@H]2C[C@@H](O)C[C@H]2/C=C/CCCCO1`, the GI50 in experiment [1] was 0.831 µM; in experiment [2] it was 0.25 µM; in experiment [3], 0.545 µM; in experiment [4] it was 0.424 µM; in experiment [5], 0.188 µM; in experiment [6], 0.447 µM. Further, the GI50 in experiment [7] is 0.28 µM. The TGI was 3.73 µM in experiment [1]; 0.615 µM in experiment [2]; > 100 µM in experiment [3]; 0.393 µM in experiment [5]; 1.53 µM in experiment [6].

Turning to `Nc1c(S(=O)(=O)O)cc2c(c1Cl)C(=O)c1ccccc1C2=O`, the GI50 in experiment [1], in experiment [2], in experiment [3], in experiment [4], in experiment [5] and in experiment [6] was > 100 µM in each case. In addition, in experiment [7], the GI50 was > 100 µM. Moreover, the TGI in experiment [1], in experiment [2], in experiment [3], in experiment [4], in experiment [5] and in experiment [6] was > 100 µM in each case. Besides, in experiment [7], the TGI was > 100 µM.

As to `O=C(O)c1cccc(F)c1C(=O)c1ccc2ccccc2c1`, the TGI in experiment [1] is > 100 µM; in experiment [2] it was > 100 µM; in experiment [3], > 100 µM; in experiment [4], > 100 µM; in experiment [5], 6.1 µM; in experiment [6], > 100 µM. Also, the TGI in experiment [7] was > 100 µM.

In the case of `COc1cc(Nc2nccc(-c3cnn4ncccc34)n2)cc(OC)c1`, the GI50 is 0.0916 µM in experiment [1]; 0.0861 µM in experiment [2]; 0.0844 µM in experiment [3]; 0.0455 µM in experiment [4]; 0.0553 µM in experiment [5]; 0.0439 µM in experiment [6]. The GI50 in experiment [7] is 0.0726 µM. Besides, the TGI is > 23.9 µM in experiment [1]; > 17.6 µM in experiment [2]; 0.48 µM in experiment [3]; 0.131 µM in experiment [4]; 0.164 µM in experiment [5]; > 14.9 µM in experiment [6]. This compound also yielded a TGI in experiment [7] of 0.38 µM.

As to `CC/C(=C(/c1ccc(Cl)cc1)c1ccc(OCCCN(C)C)cc1)c1ccc(OC)cc1`, the GI50 in experiment [1] was 3.09 µM; in experiment [2], 0.771 µM; in experiment [3] it was 7.93 µM; in experiment [4], 1.16 µM; in experiment [5] it was 0.915 µM; in experiment [6], 0.86 µM. Further, in experiment [7], the GI50 was 1.33 µM. Besides, the TGI in experiment [1] was 10.8 µM; in experiment [2] it was 1.46 µM; in experiment [3], 15 µM; in experiment [4] it was 3.45 µM; in experiment [5], 1.77 µM; in experiment [6], 1.57 µM. In addition, in experiment [7], the TGI was determined as 3.84 µM.
